Measurements taken from patent US4983600A, “Heterocyclic compounds useful as 5-HT3 antagonists” (John Wyeth & Brother Limited, priority 1987, dated 1991).

Columns and labels:
5-HT3 receptors = biological target: T1, 5-HT3 receptors (Oryctolagus cuniculus, UniProt A0A5F9C9J3); assay: 5-HT3 antagonistic activity in the isolated right atrium of the rabbit heart; format: cell-based; conditions: 10^-5 M 5-HT, read-out: -log IC50 (chronotropic response to 10^-5 M 5-HT) (converted)
T1 construct: isolated right atrium of the rabbit heart; from tissue; host or cells: rabbit heart, isolated right atrium (sympathetic nerve terminals)
T1 sequence (A0A5F9C9J3 1-494): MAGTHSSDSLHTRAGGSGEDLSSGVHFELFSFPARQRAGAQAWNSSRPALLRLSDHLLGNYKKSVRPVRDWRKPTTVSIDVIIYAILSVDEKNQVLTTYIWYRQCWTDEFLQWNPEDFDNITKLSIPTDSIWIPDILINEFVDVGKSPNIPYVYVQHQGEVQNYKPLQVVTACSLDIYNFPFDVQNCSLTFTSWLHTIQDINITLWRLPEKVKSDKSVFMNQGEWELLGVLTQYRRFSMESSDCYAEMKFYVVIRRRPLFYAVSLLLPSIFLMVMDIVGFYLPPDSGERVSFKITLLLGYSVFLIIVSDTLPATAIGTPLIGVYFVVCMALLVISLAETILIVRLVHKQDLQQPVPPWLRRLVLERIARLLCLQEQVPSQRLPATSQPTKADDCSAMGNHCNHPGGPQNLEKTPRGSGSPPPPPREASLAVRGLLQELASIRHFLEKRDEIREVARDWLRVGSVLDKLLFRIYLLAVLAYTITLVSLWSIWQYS
Experimental: In particular they antagonise specific 5-hydroxytryptamine (5-HT) receptors in warm blooded animals. […] 5-HT3 -antagonists are also termed "antagonists of "neuronal" 5-hydroxytryptamine receptors" and "serotonin (5-hydroxytryptamine) M-receptor antagonists". Such compounds have been described as being useful inter alia in the treatment of migraine, emesis, anxiety, gastrointestinal disorders and as anti-psychotics.
The compounds of the invention are tested for 5-HT3 antagonistic activity in the isolated right atrium of the rabbit heart based upon the method of Fozard J. R., Naunyn-Schmiedeberg's Arch. Pharmacol., 1984, 326, 36-44. This procedure relies upon the ability of 5-HT to stimulate 5-HT3 receptors present on sympathetic nerve terminals in the heart, causing release of noradrenaline which evokes an increase in the spontaneous rate of beating. The antagonist potency is expressed as -log IC50 (where IC50 is the chronotropic response to 10^-5 M 5-HT by 50%)

[1] = potential anxiolytic activity: mouse exploratory activity in a two-compartment light/dark box; format: in vivo; conditions: mice, Student's unpaired t-test vs vehicle, *P<0.05, **P<0.01, ***P<0.001
Experimental: The compounds of the invention are tested for potential anxiolytic activity by a test procedure measuring mouse exploratory activity in a two-compartment light/dark box based upon the procedure of B Costall et al, Neuropharmacology, 1987, 26, 195-200 and J N Crawley et al, Pharmac. Biochem. Behav., 1980, 13, 167-170. The test involves observing groups of mice placed in an open topped box, one third of which is painted black and illuminated under a dim red light and partitioned from the remainder of the box which is painted white and brightly illuminated. Access between the two sections is via an opening in the centre of the partition. The groups of mice are treated with vehicle or test compound and various behavioural parameters of the animals are measured including the number of exploratory rearings made by the mice in each section and the number of times the mice cross lines marked on the floor of each section. For each treatment group the mean number of line crossings and rears in each section of the box are calculated. Differences between drug-treated groups and vehicle-treated controls are compared using Student's unpaired t-test. […] Test compounds are considered to be active if they induce a similar set of changes and, in particular, if they produce a significant (p<0.05) increase in rearing activity in the light section of the box.

[2] = 2.0 mg/kg s.c., standard anxiolytic

SMILES | IC50 (5-HT3 receptors) | % Change Relative to Controls: Line Crossings ([1]; 1.0 mg/kg s.c.) | % Change Relative to Controls: Rears ([1]; 1.0 mg/kg s.c.) | % Change Relative to Controls: Line Crossings ([1]; 0.1 mg/kg s.c.) | % Change Relative to Controls: Rears ([1]; 0.1 mg/kg s.c.) | % Change Relative to Controls: Line Crossings [1, 2] | % Change Relative to Controls: Rears [1, 2]
O=C(Nc1cc(Cl)cc(Cl)c1)N[C@@H]1CN2CCC1CC2 [Example 12, (S)-(-)-N-(1-Azabicyclo[2.2.2]octan-3-yl)-N'-(3,5-dichlorophenyl)urea] | 0.501 nM | +42% | +75% |  |  |  | 
COc1ccccc1C(=O)NC(=O)NC1CN2CCC1CC2 (stereo not shown) [Example 5, N-[[[1-Azabicyclo[2.2.2]octan-3-yl]amino]carbonyl]-2-methoxybenzamide] | 2.14 nM |  |  | +20% | +73% |  | 
CNC1=Nc2ccc(Cl)cc2C(c2ccccc2)=[N+]([O-])C1 [Chlordiazepoxide, reference compound] |  |  |  |  |  | +42% | +77%
O=C(Nc1cc(Cl)cc(Cl)c1)NC1CN2CCC1CC2 (stereo not shown) [Example 1] | 5.01 nM |  |  | +40% | +85% |  | 
O=C(Nc1cc(Cl)cc(Cl)c1)N[C@H]1CN2CCC1CC2 [Example 13, (R)-(+)-N-(1-Azabicyclo[2.2.2]octan-3-yl)-N'-(3,5-dichlorophenyl)urea] |  |  |  | +69% | +90% |  | 
